The values that follow come from paper PMC8532448, “Drug target inference by mining transcriptional data using a novel graph convolutional network framework” (Protein & Cell, 2021).

The target of this assay is Cyclophilin A (CYPA, PPIA) (Homo sapiens, UniProt P62937). The experiment in a line: SPR with purified CYPA; also protein thermal shift (destabilization) and chymotrypsin-coupled PPIase inhibition. Format: binding.
Sequence of Cyclophilin A (CYPA, PPIA) (P62937 whole entry): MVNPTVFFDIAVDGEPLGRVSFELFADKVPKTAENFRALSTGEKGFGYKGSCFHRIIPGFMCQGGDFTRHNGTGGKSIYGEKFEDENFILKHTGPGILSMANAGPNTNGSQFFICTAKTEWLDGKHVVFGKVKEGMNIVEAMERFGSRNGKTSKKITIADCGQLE

What is called Kd is the constant that tells how readily two partners part at equilibrium. With `Cc1c(O)cccc1C(=O)N[C@@H](CSc1ccccc1)[C@H](O)CN1C[C@H]2CCCC[C@H]2C[C@H]1C(=O)NC(C)(C)C` [NFV, Nelfinavir], the Kd worked out at 940 nM.
